Experimental data as given in ChEMBL document CHEMBL3832043, “DailyMed|setid=ef14e332-51ac-ea97-3542-9bc92557dbed | PROPOFOL- propofol injection, emulsion|APP Pharmaceuticals, LLC”.

Legend:
[1] = Pharmacokinetic parameters for Propofol following multiple intravenous administration in subjects.; settings: human, in vivo
[2] = Pharmacokinetic parameters of Propofol following intravenous administration in subjects.; settings: human, in vivo

SMILES: CC(C)c1cccc(C(C)C)c1O [PROPOFOL]
- half-life [1]: 24 to 72 h
- clearance [2]: 23 to 50 mL/min/kg
